Target: T1, JNK1α1 (Homo sapiens, UniProt P45983)
T1 construct: catalytic domain containing amino acids 1-364 and N-terminal hexahistidine tag; hexahistidine (His6) (N); made in house; host or cells: E. coli BL21 (DE3)
Test: Coupled spectrophotometric (PK/LDH) JNK1α1 assay: % inhibition and Ki determination
Format: biochemical
Settings: @1 uM; read-out: % Inhibition JNK-1
Summary of the method: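 Initial rates were taken from the absorbance decrease at 340 nm at 30° C. Ki was fitted with a tight-binding model over 11 concentrations (top 100 μM); single-point inhibition was tested at 1 or 10 μM.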

T1 sequence (P45983 1-364): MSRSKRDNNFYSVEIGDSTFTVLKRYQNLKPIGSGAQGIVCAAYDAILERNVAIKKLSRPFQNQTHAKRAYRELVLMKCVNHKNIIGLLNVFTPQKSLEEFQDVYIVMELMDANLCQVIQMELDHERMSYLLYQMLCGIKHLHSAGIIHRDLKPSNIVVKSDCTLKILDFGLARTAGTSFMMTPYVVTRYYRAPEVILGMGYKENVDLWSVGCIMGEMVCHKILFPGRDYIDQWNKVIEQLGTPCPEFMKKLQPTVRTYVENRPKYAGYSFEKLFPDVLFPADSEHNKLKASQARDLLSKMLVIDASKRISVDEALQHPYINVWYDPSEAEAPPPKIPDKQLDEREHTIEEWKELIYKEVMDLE

| Structure (SMILES) | inhibition at 1 µM |
| --- | --- |
| COc1ncccc1NC(=O)c1cccc2cnc(N[C@H]3CC[C@H](O)CC3)nc12 [Example 316, 2-[(trans-4-hydroxycyclohexyl)amino]-N-(2-methoxypyridin-3-yl)quinazoline-8-carboxamide] | 18% |
| O[C@H]1CC[C@H](Nc2ncc3cccc(OCCN4CCOCC4)c3n2)CC1 [Example 250, trans-4-{[8-(2-morpholin-4-ylethoxy)quinazolin-2-yl]amino}cyclohexanol] | 24% |
| O[C@H]1CC[C@H](Nc2ncc3ccc(O[C@@H]4CCN(Cc5ccccc5)C4)cc3n2)CC1 [Example 285, trans-4-[(7-{[(3R)-1-benzylpyrrolidin-3-yl]oxy}quinazolin-2-yl)amino]cyclohexanol] | 29% |
| CC(=O)N1CCC(NC(=O)c2cccc3cnc(N[C@H]4CC[C@H](O)CC4)nc23)CC1 [Example 519, N-(1-acetylpiperidin-4-yl)-2-[(trans-4-hydroxycyclohexyl)amino]quinazoline-8-carboxamide] | 9% |
| O=C(NCCc1nc2ccccc2[nH]1)c1cccc2cnc(N[C@H]3CC[C@H](O)CC3)nc12 [Example 480, N-[2-(1H-benzimidazol-2-yl)ethyl]-2-[(trans-4-hydroxycyclohexyl)amino]quinazoline-8-carboxamide] | 11% |
| O=C(NCCn1cccn1)c1cccc2cnc(N[C@H]3CC[C@H](O)CC3)nc12 [Example 507, 2-[(trans-4-hydroxycyclohexyl)amino]-N-[2-(1H-pyrazol-1-yl)ethyl]quinazoline-8-carboxamide] | 25% |
| CC(C)[C@@H](CO)NC(=O)c1ccc2cnc(NC3CCC3)nc2c1 [Example 424, 2-(cyclobutylamino)-N-[(1S)-1-(hydroxymethyl)-2-methylpropyl]quinazoline-7-carboxamide] | 22% |
| CC(C)Nc1ncc2ccc(C(=O)N[C@@H](C)CO)cc2n1 [Example 434, N-[(1S)-2-hydroxy-1-methylethyl]-2-(isopropylamino)quinazoline-7-carboxamide] | 15% |
| CC1(COc2ccc3cnc(N[C@H]4CC[C@H](O)CC4)nc3c2)COC1 [Example 281, trans-4-({7-[(3-methyloxetan-3-yl)methoxy]quinazolin-2-yl}amino)cyclohexanol] | 72% |
| CCn1ncnc1NC(=O)c1cccc2cnc(N[C@H]3CC[C@H](O)CC3)nc12 [Example 320, N-(1-ethyl-1H-1,2,4-triazol-5-yl)-2-[(trans-4-hydroxycyclohexyl)amino]quinazoline-8-carboxamide] | 19% |

Same assay, conditions: @10 uM; read-out: % Inhibition JNK-1

| Structure (SMILES) | inhibition at 10 µM |
| --- | --- |
| Cc1ccc(C(C)NC(=O)c2cccc3cnc(N[C@H]4CC[C@H](O)CC4)nc23)cn1 (stereo partly drawn) [Example 487, 2-[(trans-4-hydroxycyclohexyl)amino]-N-[1-(6-methylpyridin-3-yl)ethyl]quinazoline-8-carboxamide] | 51% |
| CCN(CC)CCOc1cccc2cnc(N[C@H]3CC[C@H](O)CC3)nc12 [Example 261, trans-4-({8-[2-(diethylamino)ethoxy]quinazolin-2-yl}amino)cyclohexanol] | 42% |
| CCN1CCC(Oc2cccc3cnc(N[C@H]4CC[C@H](O)CC4)nc23)C1 (stereo partly drawn) [Example 259, trans-4-({8-[(1-ethylpyrrolidin-3-yl)oxy]quinazolin-2-yl}amino)cyclohexanol] | 65% |
| O=C(Nc1cccnc1N1CCOCC1)c1cccc2cnc(N[C@H]3CC[C@H](O)CC3)nc12 [Example 324, 2-[(trans-4-hydroxycyclohexyl)amino]-N-(2-morpholin-4-ylpyridin-3-yl)quinazoline-8-carboxamide] | 26% |
| CN1CCN(C)C(COc2cccc3cnc(N[C@H]4CC[C@H](O)CC4)nc23)C1 (stereo partly drawn) [Example 264, trans-4-({8-[(1,4-dimethylpiperazin-2-yl)methoxy]quinazolin-2-yl}amino)cyclohexanol] | 46% |
| O[C@H]1CC[C@H](Nc2ncc3cccc(OC[C@@H]4CCCN5CCCC[C@H]45)c3n2)CC1 [Example 263, trans-4-({8-[(1R, 9aR)-octahydro-2H-quinolizin-1-ylmethoxy]quinazolin-2-yl}amino)cyctohexanol] | 31% |
| Cc1cc(C)nc(CNC(=O)c2cccc3cnc(N[C@H]4CC[C@H](O)CC4)nc23)n1 [Example 512, N-[(4,6-dimethylpyrimidin-2-yl)methyl]-2-[(trans-4-hydroxycyclohexyl)amino]quinazoline-8-carboxamide] | 31% |

Same assay, conditions: JNK-1

| Structure (SMILES) | Ki |
| --- | --- |
| Cc1n[nH]c(C)c1CNC(=O)c1cccc2cnc(N[C@H]3CC[C@H](O)CC3)nc12 [Example 452, N-[(3,5-dimethyl-1H-pyrazol-4-yl)methyl]-2-[(trans-4-hydroxycyclohexyl)amino]quinazoline-8-carboxamide] | 166 nM |
| O=C(NCC1(O)CCC1)c1ccc2cnc(N[C@H]3CC[C@H](O)CC3)nc2c1 [Example 341, N-[(1-hydroxycyclobutyl)methyl]-2-[(trans-4-hydroxycyclohexyl)amino]quinazoline-7-carboxamide] | 836 nM |
| NCCOc1ccc(-c2cccc3cnc(N[C@H]4CC[C@H](O)CC4)nc23)cc1 [Example 202, trans-4-({8-[4-(2-aminoethoxy)phenyl]quinazolin-2-yl}amino) cyclohexanol] | 77 nM |
| Cc1ccc2cnc(N[C@H]3CC[C@H](O)CC3)nc2c1OCC(=O)N(C)C [Example 207, 2-({2-[(trans-4-hydroxycyclohexyl)amino]-7-methylquinazolin-8-yl}oxy)-N,N-dimethylacetamide] | 1060 nM |
| O=C(c1cccc2cnc(N[C@H]3CC[C@H](O)CC3)nc12)N1CCOCC1 [Example 102, trans-4-{[8-(morpholin-4-ylcarbonyl)quinazolin-2-yl]amino}cyclohexanol] | 992 nM |
| O=C(Cn1cc(-c2ccccn2)nn1)Nc1cc2cc(-c3cn[nH]c3)ccc2cn1 [Example 30, N-[6-(1H-pyrazol-4-yl)isoquinolin-3-yl]-2-(4-pyridin-2-yl-1H-1,2,3-triazol-1-yl)acetamide] | 18 nM |
| CC(=O)N[C@H]1CC[C@H](Nc2ncc3cccc(C(=O)N[C@@H]4CCC[C@H]4O)c3n2)CC1 (relative stereo) [Example 138, 2-{[trans-4-(acetylamino)cyclohexyl]amino}-N-[(trans)-2-hydroxycyclopentyl]quinazoline-8-carboxamide] | 950 nM |
| O=C(CNC(=O)c1ccccc1)Nc1cc2cc(-c3cn[nH]c3)ccc2cn1 [Example 9, N-(2-oxo-2-{[6-(1H-pyrazol-4-yl)isoquinolin-3-yl]amino)ethyl)benzamide] | 17 nM |
| O=C(N[C@H](CO)CC1CCCCC1)c1ccc2cnc(N[C@H]3CC[C@H](O)CC3)nc2c1 [Example 386, N-[(1S)-2-cyclohexyl-1-(hydroxymethyl)ethyl]-2-[(trans-4-hydroxycyclohexyl)amino]quinazoline-7-carboxamide] | 271 nM |
| C[C@H](CO)NC(=O)c1ccc2cnc(N[C@H]3CC[C@H](O)CC3)nc2c1 [Example 363] | 1950 nM |
| CC(=O)OCC(C)(C)CC(=O)Nc1cc2cc(-c3cn[nH]c3)ccc2cn1 [Example 10, 2,2-dimethyl-4-oxo-4-{[6-(1H-pyrazol-4-yl)isoquinolin-3-yl]amino)butyl acetate] | 42 nM |
| O=C(Nc1cc2cc(-c3cn[nH]c3)ccc2cn1)[C@H]1C[C@@H]1c1ccccc1 [Example 54, (1S,2S)-2-phenyl-N-[6-(1H-pyrazol-4-yl)isoquinolin-3-yl]cyclopropanecarboxamide] | 8 nM |
| CC(O)c1cccc(NC(=O)c2cccc3cnc(N[C@H]4CC[C@H](O)CC4)nc23)n1 (stereo partly drawn) [Example 126, 2-[(trans-4-hydroxycyclohexyl)amino]-N-[6-(1-hydroxyethyl)pyridin-2-yl]quinazoline-8-carboxamide] | 382 nM |
| O[C@H]1CC[C@H](Nc2ncc3ccc(O[C@@H]4CCOC4)cc3n2)CC1 [Example 159, trans-4-({7-[(3R)-tetrahydrofuran-3-yloxy]quinazolin-2-yl}amino)cyclohexanol] | 190 nM |
| CC(C)C[C@@H](CO)NC(=O)c1ccc2cnc(N[C@H]3CC[C@H](O)CC3)nc2c1 [Example 375, 2-[(trans-4-hydroxycyclohexyl)amino]-N-[(1S)-1-(hydroxymethyl)-3-methylbutyl]quinazoiine-7-carboxamide] | 107 nM |
| CS(=O)(=O)N1CCC(c2cccc3cnc(N[C@H]4CC[C@H](O)CC4)nc23)C1 (stereo partly drawn) [Example 195, trans-4-({8-[1-(methylsulfonyl)pyrrolidin-3-yl]quinazolin-2-yl}amino)cyclohexanol] | 81 nM |
| Cc1cc(OCCN(C)C)ccc1-c1cccc2cnc(N[C@H]3CC[C@H](O)CC3)nc12 [Example 203, trans-4-[(8-{4-[2-(dimethylamino)ethoxy]-2-methylphenyl}quinazolin-2-yl)amino] cyclohexanol] | 815 nM |
| Cc1ccc2cnc(N[C@H]3CC[C@H](O)CC3)nc2c1OCC(=O)NC1CCS(=O)(=O)C1 (stereo partly drawn) [Example 211, N-(1,1-dioxidotetrahydro-3-thienyl)-2-({2-[(trans-4-hydroxycyclohexyl)amino]-7-methylquinazolin-8-yl}oxy)acetamide] | 1030 nM |
| COc1ccccc1CC(=O)Nc1cc2cc(-c3cn[nH]c3)ccc2cn1 [Example 53, 2-(2-methoxyphenyl)-N-[6-(1H-pyrazol-4-yl)isoquinolin-3-yl]acetamide] | 21 nM |
| O[C@H]1CC[C@H](Nc2ncc3ccc(F)cc3n2)CC1 [Example 143, trans-4-[(7-fluoroquinazolin-2-yl)amino]cyclohexanol] | 337 nM |
| CC(C)(N)CNC(=O)c1cccc2cnc(N[C@H]3CC[C@H](O)CC3)nc12 [Example 128, N-(2-amino-2-methylpropyl)-2-[(trans-4-hydroxycyclohexyl)amino]quinazoline-8-carboxamide] | 3500 nM |
| O[C@H]1CC[C@H](Nc2ncc3cccc(O[C@H]4CCOC4)c3n2)CC1 [Example 168, trans-4-({8-[(3S)-tetrahydrofuran-3-yloxy]quinazolin-2-yl}amino)cyclohexanol] | 574 nM |
